In article PMC10138554, “Insights into the Microbicidal, Antibiofilm, Antioxidant and Toxicity Profile of New O-Aryl-Carbamoyl-Oxymino-Fluorene Derivatives” (International Journal of Molecular Sciences, 2023):
In brackets after ≈: the same amount, converted by molar mass.

System: E. coli ATCC 25922
Experiment: MIC assay, serial two-fold microdilution in liquid medium
Type: cell-based
Conditions: Escherichia coli, ATCC25922; E. coli ATCC 25922, planktonic, 37 °C, 24 h; read-out: minimum inhibitory concentration (MIC)
Method: (§1) The inhibitory activity of the obtained compounds has been assessed on five microbial strains, respectively: E. coli ATCC 25922, P. aeruginosa ATCC 27853, S. aureus ATCC 25923, E. faecalis ATCC 29212 and C. albicans ATCC 90029, in a planktonic and adherent growth state.
(§2) The MIC assay was performed by the serial two-fold microdilutions in a liquid medium, using a concentration range from 5 to 0.009 mg/mL and microbial suspensions of 0.5 MacFarland density. The wells containing only the microbial culture served as positive control and those containing the sterile culture medium as the negative control. The MIC values were read after incubation at 37 °C for 24 h.

| SMILES | MIC [µg/mL] |
| --- | --- |
| O=C(Nc1cccc(Cl)c1)ON=C1c2ccccc2-c2ccccc21 [Compound 1c, 9-((3-chloro-phenyl)carbamoyloxymino)fluoren] | 2500 (≈ 7170 µM) |
| O=C(Nc1ccc(Cl)c(Cl)c1)ON=C1c2ccccc2-c2ccccc21 [Compound 1d, 9-((3,4-dichloro-phenyl)carbamoyloxymino)fluoren] | 5000 (≈ 13000 µM) |

System: P. aeruginosa ATCC 27853
Experiment: as above
Type: cell-based
Conditions: Pseudomonas aeruginosa, ATCC27853; P. aeruginosa ATCC 27853, planktonic, 37 °C, 24 h; read-out: minimum inhibitory concentration (MIC)
Method: as §1, §2

| SMILES | MIC [µg/mL] |
| --- | --- |
| O=C(Nc1cccc(Cl)c1)ON=C1c2ccccc2-c2ccccc21 [Compound 1c, 9-((3-chloro-phenyl)carbamoyloxymino)fluoren] | 2500 (≈ 7170 µM) |
| O=C(Nc1ccc(Cl)c(Cl)c1)ON=C1c2ccccc2-c2ccccc21 [Compound 1d, 9-((3,4-dichloro-phenyl)carbamoyloxymino)fluoren] | 2500 (≈ 6520 µM) |

System: S. aureus ATCC 25923
Experiment: as above
Type: cell-based
Conditions: Staphylococcus aureus, ATCC25923; S. aureus ATCC 25923, planktonic, 37 °C, 24 h; read-out: minimum inhibitory concentration (MIC)
Method: as §1, §2

| SMILES | MIC [µg/mL] |
| --- | --- |
| O=C(Nc1cccc(Cl)c1)ON=C1c2ccccc2-c2ccccc21 [Compound 1c, 9-((3-chloro-phenyl)carbamoyloxymino)fluoren] | 2500 (≈ 7170 µM) |
| O=C(Nc1ccc(Cl)c(Cl)c1)ON=C1c2ccccc2-c2ccccc21 [Compound 1d, 9-((3,4-dichloro-phenyl)carbamoyloxymino)fluoren] | 156 (≈ 407 µM) |

System: E. faecalis ATCC 29212
Experiment: Anti-biofilm activity assay, purple violet microtiter method
Type: cell-based
Conditions: E. faecalis ATCC 29212 biofilm
Method: as §1
(§3) The anti-biofilm activity assay was performed by the purple violet microtiter method, as previously described, allowing us to determine the minimal biofilm inhibitory concentration (MBEC). The same range of concentrations, as in the MIC assay, i.e., from 5 to 0.009 mg/mL has been tested.

| SMILES | minimum biofilm inhibitory concentration (MBIC) [mg/mL] |
| --- | --- |
| O=C(Nc1cccc(Cl)c1)ON=C1c2ccccc2-c2ccccc21 [Compound 1c, 9-((3-chloro-phenyl)carbamoyloxymino)fluoren] | 0.312 |
| O=C(Nc1ccc(Cl)c(Cl)c1)ON=C1c2ccccc2-c2ccccc21 [Compound 1d, 9-((3,4-dichloro-phenyl)carbamoyloxymino)fluoren] | 1.25 |

System: S. aureus ATCC 25923
Experiment: as above
Type: cell-based, Staphylococcus aureus
Conditions: S. aureus ATCC 25923 biofilm
Method: as §1, §3

| SMILES | minimum biofilm inhibitory concentration (MBIC) [mg/mL] |
| --- | --- |
| O=C(Nc1cccc(Cl)c1)ON=C1c2ccccc2-c2ccccc21 [Compound 1c, 9-((3-chloro-phenyl)carbamoyloxymino)fluoren] | 5 |
| O=C(Nc1ccc(Cl)c(Cl)c1)ON=C1c2ccccc2-c2ccccc21 [Compound 1d, 9-((3,4-dichloro-phenyl)carbamoyloxymino)fluoren] | 0.019 |

System: E. coli ATCC 25922
Experiment: as above
Type: cell-based, Escherichia coli
Conditions: E. coli ATCC 25922 biofilm
Method: as §1, §3

| SMILES | minimum biofilm inhibitory concentration (MBIC) [mg/mL] |
| --- | --- |
| O=C(Nc1cccc(Cl)c1)ON=C1c2ccccc2-c2ccccc21 [Compound 1c, 9-((3-chloro-phenyl)carbamoyloxymino)fluoren] | 1.25 |
| O=C(Nc1ccc(Cl)c(Cl)c1)ON=C1c2ccccc2-c2ccccc21 [Compound 1d, 9-((3,4-dichloro-phenyl)carbamoyloxymino)fluoren] | 0.625 |

System: E. faecalis ATCC 29212
Experiment: Flow cytometry (FCM) membrane depolarization, DiBAC4(3)
Type: cell-based
Conditions: E. faecalis ATCC 29212, subinhibitory concentration
Method: (§4) The investigation of potential mechanisms of antimicrobial action by flow cytometry (FCM) was performed on microbial cultures obtained after 18–24 h of microbial cell incubation in the presence of subinhibitory concentrations of the analyzed compounds. Thus, microbial suspensions with a density of approximately 10^6 CFU/mL were prepared in sterile saline phosphate buffer from exponentially growing microbial cultures, obtained on a solid culture medium. Subinhibitory concentrations of the compounds were prepared in Muller–Hinton liquid culture medium and inoculated with an equal amount of microbial suspension and incubated for 18–24 h at 37 °C.
(§5) Microbial suspensions inoculated in a liquid medium were used as growth control. After incubation, the DiBAC4 fluorochrome solution [bis-(1,3-dibutylbarbituric acid) trimethinoxonol] Invitrogen/Life Technologies, Carlsbad, was added (0.5 μg/mL).
(§6) Fluorescence intensity (FI) was measured with an Accuri C6 plus flow cytometer in the FITC fluorescence channel. Growth control was used to locate the microbial cell population for fluorescence measurements. DiBAC4 dye was used to detect changes in the microbial membrane potential. […] A twofold increased fluorescence intensity (median fluorescence intensity = MFI) was considered to correspond to the depolarized microbial cells. For each subinhibitory concentration, a coloring index (CI) was calculated which represents the ratio of fluorescence intensity (FI) of treated versus untreated cells.

| SMILES | changes in the membrane potential |
| --- | --- |
| O=C(Nc1cccc(Cl)c1)ON=C1c2ccccc2-c2ccccc21 [Compound 1c, 9-((3-chloro-phenyl)carbamoyloxymino)fluoren] | did not cause changes |

Same assay, conditions: E. faecalis ATCC 29212; subinhibitory concentration tested 1.25 mg/mL; DiBAC4, 18–24 h

| SMILES | staining index value (SI) |
| --- | --- |
| O=C(Nc1cccc(Cl)c1)ON=C1c2ccccc2-c2ccccc21 [Compound 1c, 9-((3-chloro-phenyl)carbamoyloxymino)fluoren] | 0.32 |
| O=C(Nc1ccc(Cl)c(Cl)c1)ON=C1c2ccccc2-c2ccccc21 [Compound 1d, 9-((3,4-dichloro-phenyl)carbamoyloxymino)fluoren] | 44.54 |

System: S. aureus ATCC 25923
Experiment: as above
Type: cell-based, Staphylococcus aureus
Conditions: S. aureus ATCC 25923, subinhibitory concentration
Method: as §4, §5, §6

| SMILES | changes in the membrane potential |
| --- | --- |
| O=C(Nc1cccc(Cl)c1)ON=C1c2ccccc2-c2ccccc21 [Compound 1c, 9-((3-chloro-phenyl)carbamoyloxymino)fluoren] | did not cause changes |

Same assay, conditions: S. aureus ATCC 25923; subinhibitory concentration tested 1.25 mg/mL; DiBAC4, 18–24 h

| SMILES | staining index value (SI) |
| --- | --- |
| O=C(Nc1ccc(Cl)c(Cl)c1)ON=C1c2ccccc2-c2ccccc21 [Compound 1d, 9-((3,4-dichloro-phenyl)carbamoyloxymino)fluoren] | 4.2 |

Same assay, conditions: S. aureus ATCC 25923; subinhibitory concentration tested 2.5 mg/mL; DiBAC4, 18–24 h

| SMILES | staining index value (SI) |
| --- | --- |
| O=C(Nc1cccc(Cl)c1)ON=C1c2ccccc2-c2ccccc21 [Compound 1c, 9-((3-chloro-phenyl)carbamoyloxymino)fluoren] | 0.19 |

System: P. aeruginosa ATCC 27892
Experiment: as above
Type: cell-based, Pseudomonas aeruginosa
Conditions: subinhibitory concentration tested 2.5 mg/mL, DiBAC4, 18–24 h
Method: as §4, §5, §6

| SMILES | staining index value (SI) |
| --- | --- |
| O=C(Nc1cccc(Cl)c1)ON=C1c2ccccc2-c2ccccc21 [Compound 1c, 9-((3-chloro-phenyl)carbamoyloxymino)fluoren] | 2.38 |
| O=C(Nc1ccc(Cl)c(Cl)c1)ON=C1c2ccccc2-c2ccccc21 [Compound 1d, 9-((3,4-dichloro-phenyl)carbamoyloxymino)fluoren] | 20.45 |

System: C. albicans ATCC 90029
Experiment: as above
Type: cell-based, Candida albicans
Conditions: subinhibitory concentration tested 2.5 mg/mL, DiBAC4, 18–24 h
Method: as §4, §5, §6

| SMILES | staining index value (SI) |
| --- | --- |
| O=C(Nc1ccc(Cl)c(Cl)c1)ON=C1c2ccccc2-c2ccccc21 [Compound 1d, 9-((3,4-dichloro-phenyl)carbamoyloxymino)fluoren] | 20.21 |

System: Artemia franciscana Kellog nauplii
Experiment: Toxicity on the Artemia franciscana Kellog crustacean species (lethality of nauplii)
Type: in vivo
Conditions: tested concentrations 6.2–100 μg/mL (solubility limit), 24 h
Method: The oocysts (Great Salt Lake, USA) provided by S.K. Trading were grown on artificial seawater medium (Coral Marine, Grotech), dissolved in distilled water with a few minutes of sonication, at 30 g/L concentration. The test was carried out in a 24-well plate, using three replicates. Because of their low solubility, the compounds 1a–d were suspended in the culture medium using sodium alginate (0.045%) (also used a negative control), the testing being carried out at the solubility limit. The concentrations 100, 50, 25, 12.5 and 6.2 μg/mL used for each substance were obtained by successive dilutions starting from the initial suspension. Between 10 and 15 nauplii per well were collected and placed in contact with the test suspensions (1.5 mL/well). All nauplii, dead or alive, were counted and recorded within 24 h of being placed in contact with the tested suspensions. The non-linear modeling of the concentration-lethality relationship was achieved through a four-parameter logistics model (4PL), implemented in several robust variants for estimating parameters in the R package “dr4pl” [78].

| SMILES | toxicity (in words) |
| --- | --- |
| O=C(Nc1cccc(Cl)c1)ON=C1c2ccccc2-c2ccccc21 [Compound 1c, 9-((3-chloro-phenyl)carbamoyloxymino)fluoren] | not toxic |
| O=C(Nc1ccc(Cl)c(Cl)c1)ON=C1c2ccccc2-c2ccccc21 [Compound 1d, 9-((3,4-dichloro-phenyl)carbamoyloxymino)fluoren] | moderate toxicity |

System: not listed separately
Experiment: In vitro cytotoxicity assay, IncuCyte S3 live-cell analysis
Type: cell-based
Conditions: human, HT29 cells (colorectal adenocarcinoma); HT29, phase confluence (%), 72-h period
Method: The cytotoxicity of the investigated compounds was tested using the IncuCyte Basic Analysiskit, allowing to calculate the IC50, against three tumoral cell lines, i.e., HeLa (cervical cancer cells), HT29 (colon adenocarcinoma) and MG63 (osteosarcoma). The selected metric of the concentration-response module was set on phase and confluence (%).
In our experiments, we used colorectal adenocarcinoma HT29 (ATCC HTB-38), cervical adenocarcinoma cells HeLa (ATCC CRM-CCL2), and osteosarcoma MG63 (ATCC CRL-1427). The cells were maintained in Dulbeco’s Modified Medium (DMEM): F12 (Thermo Fisher Scientific, Waltham, MA, USA) supplemented with 10% fetal bovine serum (FBS, Thermo Fisher Scientific, Waltham, MA, USA). For the in vitro evaluation of their cytotoxicity, the new derivatives were solubilized in DMSO at a concentration of 10 mg/mL and filtered with 0.22 µm Millex-GV Filter (Merck, Darmstadt, Germany). For cytotoxicity kinetics, the IncuCyte® S3 Live-Cell Analysis System (Sartorius, AG, Goettingen, Germany) was used. Briefly, 2 × 10^4 cells seeded in 96 well plates were treated with the new derivatives in a concentration ranging between 500 μg/mL and 3.9 μg/mL. The plates were placed in the IncuCyte® S3 Live-Cell Analysis System, and five images per well were taken every six h over a 72-h period and then processed, according to kit recommendations.

| SMILES | IC50 at 72 h [µg/mL] |
| --- | --- |
| O=C(Nc1cccc(Cl)c1)ON=C1c2ccccc2-c2ccccc21 [Compound 1c, 9-((3-chloro-phenyl)carbamoyloxymino)fluoren] | 10.8 ± 1.36 (≈ 31 µM) |
| O=C(Nc1ccc(Cl)c(Cl)c1)ON=C1c2ccccc2-c2ccccc21 [Compound 1d, 9-((3,4-dichloro-phenyl)carbamoyloxymino)fluoren] | 8.17 ± 2.98 (≈ 21.3 µM) |

Same assay, conditions: human, HeLa cells (cervical adenocarcinoma), phase confluence (%), 72-h period

| SMILES | IC50 at 72 h [µg/mL] |
| --- | --- |
| O=C(Nc1cccc(Cl)c1)ON=C1c2ccccc2-c2ccccc21 [Compound 1c, 9-((3-chloro-phenyl)carbamoyloxymino)fluoren] | 8.9 ± 2.56 (≈ 25.5 µM) |
| O=C(Nc1ccc(Cl)c(Cl)c1)ON=C1c2ccccc2-c2ccccc21 [Compound 1d, 9-((3,4-dichloro-phenyl)carbamoyloxymino)fluoren] | 7.59 ± 3.64 (≈ 19.8 µM) |

Same assay, conditions: human, MG63 cells (osteosarcoma); MG63, phase confluence (%), 72-h period

| SMILES | IC50 at 72 h [µg/mL] |
| --- | --- |
| O=C(Nc1cccc(Cl)c1)ON=C1c2ccccc2-c2ccccc21 [Compound 1c, 9-((3-chloro-phenyl)carbamoyloxymino)fluoren] | 22.8 ± 0.78 (≈ 65.4 µM) |
| O=C(Nc1ccc(Cl)c(Cl)c1)ON=C1c2ccccc2-c2ccccc21 [Compound 1d, 9-((3,4-dichloro-phenyl)carbamoyloxymino)fluoren] | 26.3 ± 0.92 (≈ 68.6 µM) |
